The results in this text go back to US9271946B2, “Use of a RAR antagonist or inverse agonist for the treatment of chemotherapy and/or radiation therapy side effects” (IO Therapeutics, Inc., priority 2006, dated 2016).

The test system of test [1] is CPM-induced leukopenic mice. The test can be described thus: peripheral and systemic neutrophil recovery in CPM-induced leukopenic mice, spleen and bone marrow (Example 2). The class given is in vivo, mouse. The protocol:
(§1) Leukopenia was induced in male BDF1 mice (C57Bl×DBA2, 7.5-12 weeks) by an intra-peritoneal (i.p.) injection of 200 mg/kg Cyclophosphamide (CPM, Sigma-Aldrich, Saint Louis, Mo.) in 0.2 ml saline. The effect of VTP 194310 on leukocyte recovery was evaluated by oral gavage of animals with 1 mg/kg of VTP 194310 as indicated in the results section. VTP 194310 (dissolved in DMSO) was diluted through peanut oil as the vehicle (dosed at 5 ml/kg). Control mice were given DMSO and vehicle alone. As a positive control, granulocytopoiesis was stimulated in CPM-treated mice by a single sub-cutaneous injection of 10 μg/kg pegylated recombinant methionyl human granulocyte colony-stimulating factor (PEG-r-metHuG-CSF) (Neulasta, Pegfilgrastim; Amgen, Thousand Oaks, Calif.) on day 2. Three separate experiments were performed.
(§2) Peripheral blood (60 μl) was collected under anaesthesia from the retroorbital sinus of the mice with heparinized capillary tubes and transferred to EDTA-coated microtainer tubes (Becton Dickinson, Franklin Lakes, N.J.). White cell, neutrophil, and lymphocyte counts were obtained for at least three mice per group by diluting the blood 1:4 with PBS containing 5% bovine serum albumin (Fraction V; Sigma, Saint Louis, Mo.), and by using an Advia 120 Hematology System (Bayer HealthCare Diagnostics Division, Tarrytown, N.Y.).
Immature (Gr-1^low/CD11b^+ve) and mature (Gr-1^+ve/CD11b^+ve) neutrophils were identified in single cells suspensions prepared from spleen and bone marrow (femur) aspirates by double immunostaining using PE- and FITC-conjugated monoclonal antibodies (Pharmingen, San Diego, Calif.). Cells were analysed on a FACS Calibur interfaced with CellQuest Pro software program (Becton Dickinson, San Jose, Calif.).
These mice were gavaged with VTP 194310 on days −1 to 2 in relation to CPM treatment.

A further test deals with S. aureus MSSA 476. In words: activity against S. aureus, growth on agar and in liquid culture. The format is cell-based. The protocol:
(§3) The compound was analyzed at an appropriate concentration in several assays for activity against S. aureus EMRSA-16 252 and S. aureus MSSA 476.

The next test concerns S. aureus EMRSA-16 252. Described as above. The format is cell-based. The protocol:
as §3

The test system of test [2] is CPM-induced leukopenic male BDF1 mice. In words: cyclophosphamide-induced mouse model of leukopenia, blood cell recovery (Example 1). The class given is in vivo. The settings on record: for lymphocyte counts: mean±SEM.
Excerpt: Mice purchased from Charles River Laboratories (Wilmington, Mass.) were housed individually in micro-isolater cages in a 12-hour light/dark cycle. They were housed under pathogen-free conditions, and received a normal standard diet and water ad libitum. They were acclimated for one week at the Association for Assessment and Accreditation of Laboratory Animal Care (AAALAC) accredited animal facility (Allergan Inc., Irvine, Calif.) prior to experiments. Study designs were approved by the Institutional Animal Care and Use Committee. Body weights were monitored throughout each study. Weight of the mice was in the range of 22-27 g at the day of treatment initiation. The mice were healthy, not previously used in other experimental procedures.
as §1, §2

A further test concerns the target T1, RARγ (Homo sapiens, UniProt P13631).
T1 sequence (P13631 1-454): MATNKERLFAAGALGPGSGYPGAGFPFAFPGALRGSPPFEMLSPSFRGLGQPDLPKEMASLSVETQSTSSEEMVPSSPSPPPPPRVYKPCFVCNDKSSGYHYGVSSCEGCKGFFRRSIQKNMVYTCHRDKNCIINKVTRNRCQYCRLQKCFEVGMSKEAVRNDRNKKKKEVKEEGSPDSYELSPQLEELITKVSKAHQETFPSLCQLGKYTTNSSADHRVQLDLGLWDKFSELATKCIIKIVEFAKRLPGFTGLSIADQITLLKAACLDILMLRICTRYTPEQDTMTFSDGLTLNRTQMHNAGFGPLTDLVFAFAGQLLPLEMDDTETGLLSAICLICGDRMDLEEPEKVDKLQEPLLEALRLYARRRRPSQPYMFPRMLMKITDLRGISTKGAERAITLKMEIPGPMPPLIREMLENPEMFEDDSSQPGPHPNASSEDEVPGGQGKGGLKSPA
In words: binding to RARγ.

The next test concerns the target T2, RARβ (Homo sapiens, UniProt P10826).
T2 sequence (P10826 1-455): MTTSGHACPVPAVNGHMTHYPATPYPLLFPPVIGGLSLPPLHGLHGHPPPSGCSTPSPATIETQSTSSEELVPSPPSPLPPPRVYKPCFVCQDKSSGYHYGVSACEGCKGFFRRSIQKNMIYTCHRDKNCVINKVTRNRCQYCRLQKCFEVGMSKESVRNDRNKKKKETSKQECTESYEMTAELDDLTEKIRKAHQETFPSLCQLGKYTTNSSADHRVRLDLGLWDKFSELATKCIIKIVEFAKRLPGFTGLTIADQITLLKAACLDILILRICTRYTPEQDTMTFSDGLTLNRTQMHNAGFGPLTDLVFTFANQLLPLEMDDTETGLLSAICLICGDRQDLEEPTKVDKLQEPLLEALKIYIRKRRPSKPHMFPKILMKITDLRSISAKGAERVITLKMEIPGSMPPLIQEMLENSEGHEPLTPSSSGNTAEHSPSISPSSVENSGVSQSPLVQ
In words: binding to RARβ.

The mark [3] stands for this setting: 2 μM incorporated into the agar.
Where [4] appears, read: 50 μl of 2 μM in agar-well-diffusion assay.
[5] abbreviates: 1 mg/kg oral at days −4 to −1 and at days 0 to 3.
Where [6] appears, read: day 8, 1 mg/kg oral at days −4 to −1 and at days 0 to 3, CPM day 0.

In general, Ki refers to the dissociation constant of the complex between target and ligand, obtained from inhibition or displacement. A lower Ki goes with higher affinity.

In the case of `CCc1ccc(C2=CC(C)(C)Sc3ccc(C#Cc4ccc(C(=O)O)cc4)cc32)cc1` [VTP 194310, 4-[[4-(4-ethylphenyl)-2,2-dimethyl-(2H)-thiochromen-6-yl]-ethynyl]-benzoic acid], in test [1] (day 7), the “absolute number of immature granulocytes (Gr-1low/CD11b+ve) in the spleen” value is listed as 0.93±0.02 ×10^7. Also, the “absolute number of Gr-1+ve/CD11b+ve cells in the spleen” value in test [1] (days 6 and 7) is reported as “significantly increased”. The “immature granulocytes (Gr-1low/CD11b+ve) in the spleen” value in test [1] (days 6 and 7) is listed as “elevated”. Also, the “neutrophil, and lymphocyte counts compared to control recovering mice” value in test [1] (days 6 to 8, gavaged days −1 to 2) is given as “significantly elevated”. In test [1] (days 7 and 8, gavaged days −1 to 2), the “spleen weight compared to controls” value is “increased”. The “Gr-1+ve/CD11b+ve cells in the bone marrow” value in test [1] (gavaged days −1 to 2) is listed as “increased prevalence”. The “growth rate in liquid culture” value with S. aureus MSSA 476 (2 μM) and in the test with S. aureus EMRSA-16 252 (2 μM) was “neither strain demonstrated any alteration in growth rate” each time. The “growth of bacteria on agar” value with S. aureus MSSA 476 (setting [3]), in the test on S. aureus MSSA 476 (setting [4]), with S. aureus EMRSA-16 252 (setting [3]) and in the test on S. aureus EMRSA-16 252 (setting [4]) was “not inhibited” each time. Besides, in test [2] (1 mg/kg oral at days 4 to 7), the “numbers of leukocytes and neutrophils generated” value is “improved the numbers of leukocytes and neutrophils generated, but to an extent that was considerably less”. Moreover, in test [2] (setting [5]), the “earliest day with significant differences in recovery” value is on record as 5 day post-CPM. The “rise of leukocyte and neutrophil counts compared to control leukopenic mice” value in test [2] (setting [5]) was “rose quicker”. For the same compound, the leukocyte recovery result in test [2] (CPM 200 mg/kg i.p., 1 mg/kg oral gavage) was “improved leukocyte recovery”. For the same compound, the “leukocyte counts in blood versus mice treated with CPM alone” value in test [2] (setting [6]) is on record as about 3 fold. The “neutrophil counts in blood versus mice treated with CPM alone” value in test [2] (setting [6]) is about 3 fold. The lymphocyte counts is reported as 4.49±0.52 ×10^3/μl in test [2] (day 8, dosed days 0 to 3) and 4.53±0.39 ×10^3/μl in test [2] (day 8, dosed days −4 to −1). Also, the “number of lymphocytes in blood compared to control leukopenic mice and Peg-r-metHuG-CSF mice” value in test [2] (dosed days −4 to −1 and days 0 to 3) is reported as “increased number of lymphocytes”. Moreover, the inhibition constant Ki came to 5 nM at RARγ and 2 nM at RARβ.
